Measured values: patent publication US12036226B2, “Methods of treating subjects having diabetes with chronic kidney disease” (Poxel SA, priority 2018, dated 2024)
Like-named read-outs stand apart in the source and are kept apart here.

Assay: Phase 1 study of pharmacokinetics and safety of imeglimin in subjects with renal impairment compared to normal renal function
Format: in vivo, human
Settings: for concentration at 8 day / Vd/F / Tmax / Cmax / half-life / AUC / AUC(0-t) / CL renal: human, po; for concentration at 8 day / Vd/F / Tmax / Cmax / half-life / AUC / AUC(0-t): plasma; for Vd/F: read-out: Vz/F; for Tmax: median, read-out: tmax; for AUC: read-out: AUC0-τ; for CL renal: urine; for difference in exposure vs normal subjects: Day 8
Description: An open-label, parallel-group, multi-center, multiple oral dose study to investigate the pharmacokinetics of imeglimin in subjects with renal impairment compared to subjects with normal renal function was completed.
In this study, a total of 51 subjects received imeglimin at the daily dose of 1000 mg, administered either as 1000 mg QD (once a day) or 500 mg bid (twice a day) during 8 days. […] Twenty-four control subjects with normal renal function were matched to mild and moderate (10 receiving QD and 8 receiving bid regimen) and to severe (6 receiving bid regimen) renal impaired subjects. Measurement of the urine to plasma ratio of creatinine using 24 hours urine sampling was calculated (CLCrea).
Imeglimin was administered in the morning time during 8 consecutive days in the group of subjects receiving 1000 mg once a day and in the morning and evening time during 7 consecutive days followed by a morning administration of 500 mg in the morning time on Day 8 in the group of subjects receiving 500 mg twice a day. Morning administrations on Days 1 and 8 were performed on a fasted state, after a 10 hours overnight fasting and during 4 hours after imeglimin administration.
Inclusion Criteria: For subjects with normal renal functions: CLCrea>80 mL/min based on calculation using 24-hrs sampling on day −2. For subjects with impaired renal function: CLCrea 50 to 80 mL/min for subjects with mild renal impairment, 30 to <50 mL/min for subjects with moderate renal impairment, and <30 mL/min for subjects with severe renal impairment based on calculation using 24-hrs sampling on day −2.
Pharmacokinetic parameters included apparent volume of distribution during the terminal phase following extravascular administration (Vz/F), area under the curve of the plasma concentration as a function of time (AUC0-t), the maximum observed concentration (Cmax), the time to maximum concentration (tmax), the plasma half-life (t1/2), the total body clearance of drug from plasma following extravascular administration (CL/F), and other parameters.
The urinary excretion parameters of imeglimin in subjects with differing degrees of renal impairment following QD or bid oral doses of imeglimin on day 8 are summarized in Table 3 and Table 4. Parameters measured include amount of unchanged drug excreted in urine as a function of time (Ae0-t), renal clearance (CLR), and the amount of unchanged drug excreted in urine during one dosing interval (Ae0-τ), and the percentage of administered dose excreted in urine during one dosing interval (fe0-τ).
For the evaluation of safety and tolerability of multiple oral doses of 1000 mg imeglimin QD (i.e. a total dose of 8000 mg imeglimin) or 500 mg imeglimin BID (i.e. a total dose of 7500 mg imeglimin), laboratory tests (hematology, clinical chemistry, urinalysis), determination of vital signs, ECG recordings, questioning of AEs and physical examinations were performed. […] The incidence of AEs observed within the course of the study was low. Overall 31 out of 51 subjects reported 54 treatment emergent AEs. Of these, only 15 were judged as likely related to the study drug. The majority (39 AEs) were assessed as unlikely related. Based on these low incidence no clear differences between the dose regimens and between the renal impairment groups can be shown.

[1] = 500 mg, 500 mg bid oral, Day 8, Part 1 normal renal function (N = 8), geometric mean
[2] = 500 mg, 500 mg bid oral, Day 8, Part 2 CKD Stage 4 (severe renal impairment; N = 5), geometric mean
[3] = 500 mg, 500 mg bid oral, Day 8, Part 2 normal renal function (N = 6), geometric mean
[4] = 1000 mg, 1000 mg QD oral, Day 8, CKD Stage 3 (moderate renal impairment; N = 6), geometric mean
[5] = 1000 mg, 1000 mg QD oral, Day 8, CKD stage 2 (mild renal impairment; N = 5), geometric mean
[6] = 1000 mg, 1000 mg QD oral, Day 8, normal renal function (N = 8), geometric mean
[7] = 1000 mg, 1000 mg QD oral, Day 8, normal renal function (N = 10), geometric mean

## C[C@H]1N=C(N(C)C)N=C(N)N1 [imeglimin, (6R)—N^2, N^2,6-trimethyl-3,6-dihydro-1,3,5-triazine-2,4-diamine]
500 mg, 500 mg bid oral, Day 8, Part 1 CKD Stage 3 (moderate renal impairment; N = 6), geometric mean, read-out: Cav
  concentration at 8 day: 1430 ng/mL
500 mg, 500 mg bid oral, Day 8, Part 1 CKD Stage 3 (moderate renal impairment; N = 6), geometric mean
  Vd/F: 922 L
500 mg, 500 mg bid oral, Day 8, Part 1 CKD Stage 3 (moderate renal impairment; N = 6)
  Tmax: 3.5 h
[1]
  Cmax: 1030 ng/mL
  half-life: 13.2 h
  AUC: 7390 ng·h/mL
  Vd/F: 1290 L
500 mg, 500 mg bid oral, Day 8, Part 1 normal renal function (N = 8), geometric mean, read-out: Cav
  concentration at 8 day: 616 ng/mL
500 mg, 500 mg bid oral, Day 8, Part 1 normal renal function (N = 8), geometric mean, read-out: Cmin
  concentration at 8 day: 202 ng/mL
500 mg, 500 mg bid oral, Day 8, Part 1 normal renal function (N = 8)
  Tmax: 3.5 h
[2]
  Cmax: 2860 ng/mL
  half-life: 17.6 h
  AUC: 24800 ng·h/mL
  Vd/F: 511 L
500 mg, 500 mg bid oral, Day 8, Part 2 CKD Stage 4 (severe renal impairment; N = 5), geometric mean, read-out: Cav
  concentration at 8 day: 2070 ng/mL
500 mg, 500 mg bid oral, Day 8, Part 2 CKD Stage 4 (severe renal impairment; N = 5)
  Tmax: 3.5 h
[3]
  Cmax: 998 ng/mL
  half-life: 15 h
  AUC: 6970 ng·h/mL
  Vd/F: 1550 L
500 mg, 500 mg bid oral, Day 8, Part 2 normal renal function (N = 6), geometric mean, read-out: Cav
  concentration at 8 day: 581 ng/mL
500 mg, 500 mg bid oral, Day 8, Part 2 normal renal function (N = 6)
  Tmax: 3.75 h
[4]
  AUC(0-t): 29100 ng·h/mL
  Cmax: 2570 ng/mL
  half-life: 23.4 h
  Vd/F: 1160 L
1000 mg, 1000 mg QD oral, Day 8, CKD Stage 3 (moderate renal impairment; N = 6), geometric mean, read-out: Cav
  concentration at 8 day: 1210 ng/mL
1000 mg, 1000 mg QD oral, Day 8, CKD Stage 3 (moderate renal impairment; N = 6), geometric mean, read-out: Cmin
  concentration at 8 day: 335 ng/mL
1000 mg, 1000 mg QD oral, Day 8, CKD Stage 3 (moderate renal impairment; N = 6)
  Tmax: 5 h
[5]
  AUC(0-t): 20100 ng·h/mL
  Cmax: 2050 ng/mL
  half-life: 15 h
  Vd/F: 1070 L
1000 mg, 1000 mg QD oral, Day 8, CKD stage 2 (mild renal impairment; N = 5), geometric mean, read-out: Cav
  concentration at 8 day: 838 ng/mL
1000 mg, 1000 mg QD oral, Day 8, CKD stage 2 (mild renal impairment; N = 5), geometric mean, read-out: Cmin
  concentration at 8 day: 178 ng/mL
1000 mg, 1000 mg QD oral, Day 8, CKD stage 2 (mild renal impairment; N = 5)
  Tmax: 4 h
[6]
  half-life: 16.4 h
  Vd/F: 1570 L
[7]
  AUC(0-t): 15400 ng·h/mL
  Cmax: 1750 ng/mL
1000 mg, 1000 mg QD oral, Day 8, normal renal function (N = 10), geometric mean, read-out: Cmin
  concentration at 8 day: 115 ng/mL
1000 mg, 1000 mg QD oral, Day 8, normal renal function (N = 10)
  Tmax: 4 h
500 mg, 500 mg bid oral, Day 8, CKD Stage 2 (mild renal impairment) (N = 4), geometric mean (CV %), read-out: CLR
  CL renal: 323 mL/min
500 mg, 500 mg bid oral, Day 8, CKD Stage 3 (moderate renal impairment) (N = 6), geometric mean (CV %), read-out: CLR
  CL renal: 193 mL/min
500 mg, 500 mg bid oral, Day 8, CKD Stage 4 (severe renal impairment) (N = 5), geometric mean (CV %), read-out: CLR
  CL renal: 140 mL/min
500 mg, 500 mg bid oral, Day 8, normal renal function (N = 6), geometric mean (CV %), read-out: CLR
  CL renal: 548 mL/min
500 mg, 500 mg bid oral, Day 8, normal renal function (N = 8), geometric mean (CV %), read-out: CLR
  CL renal: 501 mL/min
1000 mg, 1000 mg QD oral, Day 8, CKD Stage 2 (mild renal impairment), N = 2, min, max, read-out: CLR (renal clearance)
  CL renal: 388 to 522 mL/min
1000 mg, 1000 mg QD oral, Day 8, CKD Stage 3 (moderate renal impairment) (N = 6), geometric mean, read-out: CLR (renal clearance)
  CL renal: 197 mL/min
1000 mg, 1000 mg QD oral, Day 8, normal renal function (N = 10), geometric mean, read-out: CLR (renal clearance)
  CL renal: 418 mL/min
Mild renal impairment
  difference in exposure vs normal subjects: up to 1.5 fold
Moderate renal impairment
  difference in exposure vs normal subjects: ≤ 2.3 fold
Of 54 treatment emergent AEs
  AEs assessed as unlikely related: 39
  AEs judged as likely related to the study drug: 15
Repeated dosing of 1000 mg QD and 500 mg bid
  Steady-state attained by: ≤ 6 days
Severe renal impairment
  decrease in renal clearance vs normal subjects: ≤ 74%
  decrease in total oral body clearance vs normal subjects: up to 72%
  difference in exposure vs normal subjects: up to 3.6 fold
Total daily dose of 1000 mg over 8 days
  general safety and tolerability assessment: good or very good tolerability
